Experimental data: paper PMC12564265, “Navigating the Deep Eutectic Solvent Landscape: Experimental and Machine Learning Solubility Explorations of Syringic, p-Coumaric, and Caffeic Acids” (International Journal of Molecular Sciences, 2025)

Experiment: Shake-flask solubility with spectrophotometric measurement in aqueous DES mixtures
Format: physicochemical
Method: In order to determine the solubility of the three studied phenolic acids in deep eutectic solvents, a very well-established shake-flask method coupled with spectrophotometric measurements was utilized. The initial procedure involved the preparation of various DESs, which was conducted by mixing their HBA and HBD counterparts in a glass vessel and heating the composition until the formation of a transparent, uniform liquid. […] For additional measurements, the DESs were mixed with water in varying proportions, creating aqueous DES systems. Saturated solutions of CAF, SYR, and COU were obtained by adding excess amounts of these compounds to test tubes containing either a neat deep eutectic solvent or its aqueous solution. Such samples were placed in the Orbital Shaker Incubator ES-20/60 from Biosan (Riga, Latvia) and heated for 24 h at 25 °C, 30 °C, 35 °C, and 40 °C (±0.1 °C) with simultaneous mixing at 60 rpm. Before measurements, the samples were filtered using a PTFE syringe filter from Qpore (Dallas, TX, USA) with a 0.22 μm pore size. In order to avoid possible precipitation of the saturated solutions at decreased temperatures, the test tubes, syringes, pipette tips, and filters were kept at a temperature identical to that of the samples. The spectrophotometric measurements required the preparation of calibration curves for the three APIs. This involved the preparation of a stock solution of each compound in methanol, which was later successfully diluted, and the obtained solutions of varying concentrations were measured using an A360 spectrophotometer from AOE Instruments (Shanghai, China). The wavelength range was set to 200-500 nm, and the resolution was 1 nm. The analytical wavelengths were determined to be 324 nm for caffeic acid, 273 nm for syringic acid, and 308 nm for p-coumaric acid. The final regression equations, obtained after averaging three distinct sets of measurements, are collected in Table 2 together with determination coefficients and limits of detection (LOD) and quantification (LOQ) for the calibration curves. The measurements of the samples were conducted with the same spectrophotometer and identical settings. Methanol was used for the dilution of the samples so that they could remain within the linearity range of the method. Complete spectra of the samples were recorded, but for the solubility determination, the absorbance values at a specific analytical wavelength were considered. These values were combined with the corresponding regression equations of the calibration curves and served for the calculation of the concentration of the three phenolic acids in the studied samples. The densities of such samples were also measured, and for this task 1 mL of each sample was weighed to a precision of 0.1 mg using an AS 110 R2.PLUS analytical balance from […] (Radom, Poland). The obtained densities enabled the calculation of mole fractions of CAF, SYR, and COU dissolved in the studied DESs. For each considered system, three distinct measurements were conducted, and the results were averaged.

Mole fraction solubility (Bet – TEG 1:2 + water, x*DES 0.1, 25°C): 0.0042±0.0001 mole fraction | Mole fraction solubility (Bet – TEG 1:2 + water, x*DES 0.1, 30°C): 0.0046±0.0001 mole fraction | Mole fraction solubility (Bet – TEG 1:2 + water, x*DES 0.1, 35°C): 0.0057±0.0001 mole fraction | Mole fraction solubility (Bet – TEG 1:2 + water, x*DES 0.1, 40°C): 0.0067±0.0001 mole fraction | Mole fraction solubility (Bet – TEG 1:2 + water, x*DES 0.2, 25°C): 0.0093±0.0001 mole fraction | Mole fraction solubility (Bet – TEG 1:2 + water, x*DES 0.2, 30°C): 0.0105±0.0001 mole fraction | Mole fraction solubility (Bet – TEG 1:2 + water, x*DES 0.2, 35°C): 0.0127±0.0001 mole fraction | Mole fraction solubility (Bet – TEG 1:2 + water, x*DES 0.2, 40°C): 0.0148±0.0002 mole fraction | Mole fraction solubility (Bet – TEG 1:2 + water, x*DES 0.3, 25°C): 0.0153±0.0001 mole fraction | Mole fraction solubility (Bet – TEG 1:2 + water, x*DES 0.3, 30°C): 0.0173±0.0001 mole fraction | Mole fraction solubility (Bet – TEG 1:2 + water, x*DES 0.3, 35°C): 0.0207±0.0002 mole fraction | Mole fraction solubility (Bet – TEG 1:2 + water, x*DES 0.3, 40°C): 0.0239±0.0002 mole fraction | Mole fraction solubility (Bet – TEG 1:2 + water, x*DES 0.4, 25°C): 0.0214±0.0002 mole fraction | Mole fraction solubility (Bet – TEG 1:2 + water, x*DES 0.4, 30°C): 0.0247±0.0001 mole fraction | Mole fraction solubility (Bet – TEG 1:2 + water, x*DES 0.4, 35°C): 0.0290±0.0002 mole fraction | Mole fraction solubility (Bet – TEG 1:2 + water, x*DES 0.4, 40°C): 0.0341±0.0003 mole fraction | Mole fraction solubility (Bet – TEG 1:2 + water, x*DES 0.5, 25°C): 0.0284±0.0002 mole fraction | Mole fraction solubility (Bet – TEG 1:2 + water, x*DES 0.5, 30°C): 0.0318±0.0002 mole fraction | Mole fraction solubility (Bet – TEG 1:2 + water, x*DES 0.5, 35°C): 0.0386±0.0002 mole fraction | Mole fraction solubility (Bet – TEG 1:2 + water, x*DES 0.5, 40°C): 0.0457±0.0003 mole fraction | Mole fraction solubility (Bet – TEG 1:2 + water, x*DES 0.6, 25°C): 0.0351±0.0003 mole fraction | Mole fraction solubility (Bet – TEG 1:2 + water, x*DES 0.6, 30°C): 0.0396±0.0003 mole fraction | Mole fraction solubility (Bet – TEG 1:2 + water, x*DES 0.6, 35°C): 0.0475±0.0009 mole fraction | Mole fraction solubility (Bet – TEG 1:2 + water, x*DES 0.6, 40°C): 0.0568±0.0006 mole fraction | Mole fraction solubility (Bet – TEG 1:2 + water, x*DES 0.7, 25°C): 0.0425±0.0003 mole fraction | Mole fraction solubility (Bet – TEG 1:2 + water, x*DES 0.7, 30°C): 0.0483±0.0005 mole fraction | Mole fraction solubility (Bet – TEG 1:2 + water, x*DES 0.7, 35°C): 0.0579±0.0010 mole fraction | Mole fraction solubility (Bet – TEG 1:2 + water, x*DES 0.7, 40°C): 0.0702±0.0004 mole fraction | Mole fraction solubility (Bet – TEG 1:2 + water, x*DES 0.8, 30°C): 0.0558±0.0006 mole fraction | Mole fraction solubility (Bet – TEG 1:2 + water, x*DES 0.8, 35°C): 0.0673±0.0015 mole fraction | Mole fraction solubility (Bet – TEG 1:2 + water, x*DES 0.8, 40°C): 0.0790±0.0009 mole fraction | Mole fraction solubility (Bet – TEG 1:2 + water, x*DES 0.9, 25°C): 0.0488 mole fraction | Mole fraction solubility (Bet – TEG 1:2 + water, x*DES 0.9, 25°C, listed as syryngic acid): 0.0488±0.0004 mole fraction | Mole fraction solubility (Bet – TEG 1:2 + water, x*DES 0.9, 30°C): 0.0551±0.0005 mole fraction | Mole fraction solubility (Bet – TEG 1:2 + water, x*DES 0.9, 35°C): 0.0682±0.0014 mole fraction | Mole fraction solubility (Bet – TEG 1:2 + water, x*DES 0.9, 40°C): 0.0796±0.0008 mole fraction | Mole fraction solubility (Bet – TEG 1:2, x*DES 1.0 (neat DES), 25°C): 0.0474±0.0003 mole fraction | Mole fraction solubility (Bet – TEG 1:2, x*DES 1.0 (neat DES), 30°C): 0.0541±0.0004 mole fraction | Mole fraction solubility (Bet – TEG 1:2, x*DES 1.0 (neat DES), 35°C): 0.0657±0.0011 mole fraction | Mole fraction solubility (Bet – TEG 1:2, x*DES 1.0 (neat DES), 40°C): 0.0778±0.0009 mole fraction | Increase in the solubility compared to the neat DES (Bet-TEG 1:2, x*DES = 0.9 (xwater = 0.1), 25 °C): 3% | Mole fraction solubility (ChCl – TEG 1:2 + water, x*DES 0.1, 25°C): 0.0069±0.0001 mole fraction | Mole fraction solubility (ChCl – TEG 1:2 + water, x*DES 0.1, 30°C): 0.0093±0.0001 mole fraction | Mole fraction solubility (ChCl – TEG 1:2 + water, x*DES 0.1, 35°C): 0.0131±0.0001 mole fraction | Mole fraction solubility (ChCl – TEG 1:2 + water, x*DES 0.1, 40°C): 0.0174±0.0002 mole fraction | Mole fraction solubility (ChCl – TEG 1:2 + water, x*DES 0.2, 25°C): 0.0122±0.0001 mole fraction | Mole fraction solubility (ChCl – TEG 1:2 + water, x*DES 0.2, 30°C): 0.0158±0.0001 mole fraction | Mole fraction solubility (ChCl – TEG 1:2 + water, x*DES 0.2, 35°C): 0.0218±0.0001 mole fraction | Mole fraction solubility (ChCl – TEG 1:2 + water, x*DES 0.2, 40°C): 0.0305±0.0002 mole fraction | Mole fraction solubility (ChCl – TEG 1:2 + water, x*DES 0.3, 25°C): 0.0186±0.0001 mole fraction | Mole fraction solubility (ChCl – TEG 1:2 + water, x*DES 0.3, 30°C): 0.0249±0.0001 mole fraction | Mole fraction solubility (ChCl – TEG 1:2 + water, x*DES 0.3, 35°C): 0.0347±0.0003 mole fraction
Structure (SMILES): COc1cc(C(=O)O)cc(OC)c1O [syringic acid, 4-hydroxy-3,5-dimethoxybenzoic acid]
